Experimental data: the NIST ThermoML archive (doi:10.1016/j.jct.2016.06.034)

Assay: mn = molality of the nth substance listed, in mol/kg
Details: for mass density / electrical conductivity / speed of sound: 84.5 kPa, Liquid; for mass density: Vibrating tube method; for surface tension liquid-gas: platinum plate method; for electrical conductivity: Alternating current cell with electrodes; for speed of sound: Frequency=3 MHz, Sing-around technique in a fixed-path interferometer

CCCCCCCCCCn1cc[n+](C)c1.[Br-] [1-decyl-3-methylimidazolium bromide] + O
Details | electrical conductivity [S/m] | mass density [kg/m3] | speed of sound [m/s] | surface tension liquid-gas [mN/m]
303.15 K, m1 = 0.0095 | – | 996.005 | – | –
303.15 K, m1 = 0.01379 | – | 996.169 | – | –
303.15 K, m1 = 0.01652 | – | 996.273 | – | –
303.15 K, m1 = 0.02179 | – | 996.475 | – | –
303.15 K, m1 = 0.02615 | – | 996.639 | – | –
303.15 K, m1 = 0.03106 | – | 996.825 | – | –
303.15 K, m1 = 0.03338 | – | 996.912 | – | –
303.15 K, m1 = 0.03819 | – | 997.092 | – | –
303.15 K, m1 = 0.0406 | – | 997.186 | – | –
303.15 K, m1 = 0.04332 | – | 997.276 | – | –
303.15 K, m1 = 0.04614 | – | 997.377 | – | –
303.15 K, m1 = 0.05515 | – | 997.672 | – | –
303.15 K, m1 = 0.06396 | – | 997.957 | – | –
303.15 K, m1 = 0.07815 | – | 998.413 | – | –
303.15 K, m1 = 0.122 | – | 999.792 | – | –
303.15 K, m1 = 0.1726 | – | 1001.35 | – | –
303.15 K, m1 = 0.2247 | – | 1002.91 | – | –
303.15 K, m1 = 0.2539 | – | 1003.77 | – | –
308.15 K, m1 = 1e-05 | 0.000218 | – | – | –
308.15 K, m1 = 3e-05 | 0.000397 | – | – | –
308.15 K, m1 = 4e-05 | 0.000606 | – | – | –
308.15 K, m1 = 7e-05 | 0.000959 | – | – | –
308.15 K, m1 = 0.0001 | 0.00133 | – | – | –
308.15 K, m1 = 0.00013 | 0.00169 | – | – | –
308.15 K, m1 = 0.00017 | 0.00228 | – | – | –
308.15 K, m1 = 0.00024 | 0.0032 | – | – | –
308.15 K, m1 = 0.00039 | 0.0051 | – | – | –
308.15 K, m1 = 0.00069 | 0.00888 | – | – | –
308.15 K, m1 = 0.00098 | 0.0124 | – | – | –
308.15 K, m1 = 0.0014 | 0.0178 | – | – | –
308.15 K, m1 = 0.00242 | 0.0302 | – | – | –
308.15 K, m1 = 0.00326 | 0.0401 | – | – | –
308.15 K, m1 = 0.00348 | 0.0427 | – | – | –
308.15 K, m1 = 0.0063 | 0.0752 | – | – | –
308.15 K, m1 = 0.00691 | – | – | – | 46.2
308.15 K, m1 = 0.00928 | 0.108 | – | – | –
308.15 K, m1 = 0.0095 | – | 994.377 | 1521.3 | –
308.15 K, m1 = 0.01212 | 0.139 | – | – | –
308.15 K, m1 = 0.01368 | – | – | – | 40.98
308.15 K, m1 = 0.01379 | – | 994.536 | 1522 | –
308.15 K, m1 = 0.01499 | 0.169 | – | – | –
308.15 K, m1 = 0.01652 | – | 994.638 | 1522.4 | –
308.15 K, m1 = 0.01731 | 0.193 | – | – | –
308.15 K, m1 = 0.01851 | – | – | – | 39.3
308.15 K, m1 = 0.02003 | 0.22 | – | – | –
308.15 K, m1 = 0.02179 | – | 994.831 | 1523.2 | –
308.15 K, m1 = 0.02313 | 0.25 | – | – | –
308.15 K, m1 = 0.0251 | – | – | – | 38.12
308.15 K, m1 = 0.02573 | 0.275 | – | – | –
308.15 K, m1 = 0.02615 | – | 994.993 | 1523.7 | –
308.15 K, m1 = 0.0282 | 0.298 | – | – | –
308.15 K, m1 = 0.03065 | 0.321 | – | – | –
308.15 K, m1 = 0.03094 | – | – | – | 37.39
308.15 K, m1 = 0.03106 | – | 995.17 | 1524.4 | –
308.15 K, m1 = 0.03312 | 0.343 | – | – | –
308.15 K, m1 = 0.03338 | – | 995.253 | 1524.7 | –
308.15 K, m1 = 0.03447 | – | – | – | 36.95
308.15 K, m1 = 0.03589 | 0.367 | – | – | –
308.15 K, m1 = 0.03819 | – | 995.428 | 1525.4 | –
308.15 K, m1 = 0.03832 | 0.388 | – | – | –
308.15 K, m1 = 0.04053 | 0.406 | – | – | –
308.15 K, m1 = 0.0406 | – | 995.52 | 1525.5 | –
308.15 K, m1 = 0.04063 | – | – | – | 36.49
308.15 K, m1 = 0.04223 | 0.419 | – | – | –
308.15 K, m1 = 0.04332 | – | 995.61 | 1525.8 | –
308.15 K, m1 = 0.04385 | 0.429 | – | – | –
308.15 K, m1 = 0.04569 | 0.439 | – | – | –
308.15 K, m1 = 0.04614 | – | 995.708 | 1526 | –
308.15 K, m1 = 0.0479 | – | – | – | 36.69
308.15 K, m1 = 0.04793 | 0.449 | – | – | –
308.15 K, m1 = 0.04988 | 0.457 | – | – | –
308.15 K, m1 = 0.05063 | – | – | – | 37.17
308.15 K, m1 = 0.05219 | – | – | – | 37.66
308.15 K, m1 = 0.05236 | 0.466 | – | – | –
308.15 K, m1 = 0.05506 | – | – | – | 37.95
308.15 K, m1 = 0.05515 | – | 995.996 | 1526.1 | –
308.15 K, m1 = 0.05533 | 0.477 | – | – | –
308.15 K, m1 = 0.05718 | 0.483 | – | – | –
308.15 K, m1 = 0.05941 | 0.492 | – | – | –
308.15 K, m1 = 0.06163 | 0.498 | – | – | –
308.15 K, m1 = 0.06382 | 0.507 | – | – | –
308.15 K, m1 = 0.06396 | – | 996.274 | 1526.1 | –
308.15 K, m1 = 0.07 | – | – | – | 38.27
308.15 K, m1 = 0.07815 | – | 996.719 | 1526 | –
308.15 K, m1 = 0.09792 | – | – | – | 38.41
308.15 K, m1 = 0.122 | – | 998.067 | 1525.6 | –
308.15 K, m1 = 0.1694 | – | – | – | 38.44
308.15 K, m1 = 0.1726 | – | 999.588 | 1525.1 | –
308.15 K, m1 = 0.2247 | – | 1001.11 | 1524.7 | –
308.15 K, m1 = 0.2268 | – | – | – | 38.2
308.15 K, m1 = 0.2539 | – | 1001.95 | 1524.4 | –
